“Also recorded” adds a separate entry of the source.
Experiments:
mTBI rats [1] = assay: Electrocorticographic recording of paroxysmal slow wave events (PSWEs) in repeated mild TBI rat model; format: in vivo, Sprague-Dawley rats
[2] = tested on: cortical microvasculature (BBB) of mTBI rats; assay: Intravital microscopy (open window, fluorescent angiography) of cortical microvascular permeability in repeated mild TBI rat model; format: in vivo, Sprague-Dawley rats; conditions: repeated THC 0.002 mg/kg i.p.; 6-8 days after first injury; vs vehicle-injected controls
mTBI rats [3] = assay: Neurological scoring / neurological complications after repeated mild TBI; format: in vivo, Sprague-Dawley rats; conditions: daily injection of THC 0.002 mg/kg i.p.; 60% without THC
[4] = tested on: blood-brain barrier (BBB) of mTBI rats; assay: Contrast-enhanced MRI of blood-brain barrier permeability in repeated mild TBI rat model; format: in vivo, Sprague-Dawley rats
[5] = intravenous, humans; cited from earlier work

Row | Compound | number of PSWEs (mTBI rats [1]; repeated THC 0.002 mg/kg i.p., ECoG 3-4 weeks following injury) | number of PSWEs (mTBI rats [1]; single THC dose (THC1) 0.002 mg/kg i.p. after first impact, vs controls, FIG. 3B) | cortical microvascular (BBB) permeability [2] | risk for neurological complications (mTBI rats [3]) | % of brain volume with pathological (damaged) BBB ([4]; repeated (daily, after each impact) THC 0.002 mg/kg i.p., CE-MRI after rmTBI, vs TBI vehicle) | % of brain volume with pathological voxels compared to non-injured controls ([4]; repeated THC 0.002 mg/kg i.p., CE-MRI, FIG. 1D) | effect on trauma-induced BBB breakdown ([4]; repeated THC, data from both CE-MRI and intravital microscopy) | estimated lethal dose [5]
1 | CCCCCc1cc(O)c2c(c1)OC(C)(C)[C@@H]1CCC(C)=C[C@@H]21 [THC, Δ9-tetrahydrocannabinol] | mild reduction; also recorded: lower occurrence | significant increase | lower; also recorded: reduced | 35% | Moderate decrease | not different compared to controls | mild protective and therapeutic effect | –
2 | CCCCCc1cc(O)c2c(c1)OC(C)(C)[C@@H]1CCC(C)=C[C@@H]21 [dronabinol, (−)-trans-[…]9-tetrahydrocannabinol] | – | – | – | – | – | – | – | 30 mg/kg

Reference: US20230302025A1, “METHODS FOR MAINTAINING MICROVASCULAR INTEGRITY” (SCISPARC LTD., priority 2020, published 2023)
